Assay results reported in ChEMBL document CHEMBL1128478, “Structure-activity relationships of the potent combined endothelin-A/endothelin-B receptor antagonist Ac-DDip16-Leu-Asp-Ile-Ile-Trp21: development of endothelin-B receptor selective antagonists” (J Med Chem, 1995).
Numbered stars: 1 amine (or outer) side, 2 acyl side, 3 side chain; on linkers, the order of the positions; unused ones are H or OH. Square brackets hold non-standard residues; d marks the D form. Peptide text beside a SMILES is read from it. dGly(5-dibenzosuberyl) = N[C@@H](C(=O)O)C1c2ccccc2CCc2ccccc21; X3 = O=C([C@@H](N[*:1])C(c1ccccc1)(c1ccccc1)c1ccccc1)[*:2]; Ala(1-Adamantyl) = N[C@@H](CC12CC3CC(CC(C3)C1)C2)C(=O)O; dDip = N[C@@H](C(=O)O)C(c1ccccc1)c1ccccc1; Dip = N[C@H](C(=O)O)C(c1ccccc1)c1ccccc1; 3Pal = N[C@@H](Cc1cccnc1)C(=O)O; Suc = O=C(CCC(=O)[*:2])[*:1]; Orn = NCCC[C@H](N)C(=O)O

Biological target: T1, Endothelin receptor type B (Rattus norvegicus, UniProt P21451)
T1 sequence (P21451 whole entry): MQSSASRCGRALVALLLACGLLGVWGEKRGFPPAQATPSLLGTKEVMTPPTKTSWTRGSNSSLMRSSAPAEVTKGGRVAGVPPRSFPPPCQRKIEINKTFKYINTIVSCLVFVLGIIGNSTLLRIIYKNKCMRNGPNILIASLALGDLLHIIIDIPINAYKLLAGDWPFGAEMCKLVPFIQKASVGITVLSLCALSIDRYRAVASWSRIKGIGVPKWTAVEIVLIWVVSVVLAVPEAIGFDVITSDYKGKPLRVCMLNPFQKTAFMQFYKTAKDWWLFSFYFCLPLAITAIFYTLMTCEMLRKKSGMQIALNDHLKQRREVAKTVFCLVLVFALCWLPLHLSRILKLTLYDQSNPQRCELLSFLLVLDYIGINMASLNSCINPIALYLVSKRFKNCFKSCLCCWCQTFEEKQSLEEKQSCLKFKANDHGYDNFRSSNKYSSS
Experiment: Binding affinity against endothelin B receptor rat cerebellar membranes.

Row | Compound | IC50 [nM]
1 | CC[C@H](C)[C@@H]1NC(=O)[C@H](CC(=O)O)NC(=O)[C@@H](NC(=O)[C@H](NC(C)=O)C(c2ccccc2)c2ccccc2)CSSC[C@@H](C(=O)N[C@@H](Cc2c[nH]c3ccccc23)C(=O)O)NC1=O | > 1000
2 | CC[C@H](C)[C@@H]1NC(=O)[C@H](CC(=O)O)NC(=O)[C@H](CC(C)C)NC(=O)[C@@H](C2c3ccccc3CCc3ccccc32)NC(=O)[C@H](Cc2c[nH]c3ccccc23)NC(=O)[C@H]([C@@H](C)CC)NC1=O | > 10000
3 | CC[C@H](C)[C@H](NC(=O)[C@H](CC(=O)O)NC(=O)[C@H](CC(C)C)NC(=O)[C@H](NC(C)=O)C(c1ccccc1)c1ccccc1)C(=O)N[C@@H](Cc1ccccc1)C(=O)N[C@@H](Cc1c[nH]c2ccccc12)C(=O)O | 7500
4 | CC[C@H](C)[C@H](NC(=O)[C@H](CCCCN)NC(=O)[C@H](CC(=O)O)NC(=O)[C@H](CC(C)C)NC(=O)[C@H](NC(C)=O)C(c1ccccc1)c1ccccc1)C(=O)N[C@@H](Cc1c[nH]c2ccccc12)C(=O)O | 3700
5 | CC[C@H](C)[C@H](NC(=O)[C@H](CC(=O)O)NC(=O)[C@H](CC(C)C)NC(=O)[C@H](NC(C)=O)C(c1ccccc1)c1ccccc1)C(=O)N[C@H](C(=O)N[C@@H](Cc1ccccc1)C(=O)O)[C@@H](C)CC | 6800
6 | CC[C@H](C)[C@H](NC(=O)[C@H](CC(=O)O)NC(=O)[C@H](CC(C)C)NC(=O)[C@@H](NC(C)=O)C(c1ccccc1)c1ccccc1)C(=O)N[C@H](C(=O)N[C@@H](Cc1cccnc1)C(=O)O)[C@@H](C)CC (Ac-[Dip]LDII[3Pal]-OH) | > 10000
7 | CC[C@H](C)[C@H](NC(=O)[C@H](CC(=O)O)NC(=O)[C@H](CC(C)C)NC(=O)[C@@H](NC(C)=O)C(c1ccccc1)c1ccccc1)C(=O)N[C@@H](CCC(=O)O)C(=O)N[C@@H](Cc1c[nH]c2ccccc12)C(=O)O (Ac-[Dip]LDIEW-OH) | > 10000
8 | CC[C@H](C)[C@H](NC(=O)[C@H](CC(=O)O)NC(=O)[C@H](CC(C)C)NC(=O)[C@@H](NC(C)=O)C(c1ccccc1)c1ccccc1)C(=O)N[C@H](C(=O)N[C@@H](Cc1ccc(O)cc1)C(=O)O)[C@@H](C)CC (Ac-[Dip]LDIIY-OH) | 6100
9 | CC[C@H](C)[C@H](NC(=O)[C@H](CC(=O)O)NC(=O)[C@H](CC(C)C)NC(=O)[C@@H](N)C(c1ccccc1)(c1ccccc1)c1ccccc1)C(=O)N[C@H](C(=O)N[C@@H](Cc1c[nH]c2ccccc12)C(=O)O)[C@@H](C)CC (H-[X3]LDIIW-OH) | 10000
10 | CC[C@H](C)[C@H](NC(=O)[C@H](CC(=O)O)NC(=O)[C@H](CC(C)C)NC(=O)[C@H](NC(C)=O)C1c2ccccc2CCc2ccccc21)C(=O)N[C@H](C(=O)N[C@@H](Cc1c[nH]c2ccccc12)C(=O)O)[C@@H](C)CC (Ac-[dGly(5-dibenzosuberyl)]LDIIW-OH) | 15
11 | CC[C@H](C)[C@H](NC(=O)[C@H](CC(=O)O)NC(=O)[C@H](CC(C)C)NC(=O)[C@@H](NC(C)=O)C(c1ccccc1)(c1ccccc1)c1ccccc1)C(=O)N[C@H](C(=O)N[C@@H](Cc1c[nH]c2ccccc12)C(=O)O)[C@@H](C)CC (Ac-[X3]LDIIW-OH) | 5900
12 | CC[C@H](C)[C@H](NC(=O)[C@H](CCC(=O)O)NC(=O)[C@H](CC(=O)O)NC(=O)[C@H](CC(C)C)NC(=O)[C@H](NC(C)=O)C(c1ccccc1)c1ccccc1)C(=O)N[C@@H](Cc1c[nH]c2ccccc12)C(=O)O (Ac-[dDip]LDEIW-OH) | 6000
13 | CC[C@H](C)[C@@H]1NC(=O)[C@H](CC(=O)O)NC(=O)[C@H](CC(C)C)NC(=O)[C@@H](Cc2ccccc2)NC(=O)[C@H](Cc2c[nH]c3ccccc23)NC(=O)[C@H]([C@@H](C)CC)NC1=O | > 10000
14 | CC[C@H](C)[C@H](NC(=O)[C@H](CC(=O)O)NC(=O)[C@H](CC(C)C)NC(=O)[C@@H](NC(C)=O)C(c1ccccc1)c1ccccc1)C(=O)N[C@@H](CCCCN)C(=O)N[C@@H](Cc1c[nH]c2ccccc12)C(=O)O (Ac-[Dip]LDIKW-OH) | 4700
15 | CC[C@H](C)[C@H](NC(=O)[C@H](CC(=O)O)NC(=O)[C@H](CC(C)C)NC(=O)[C@@H](NC(=O)CCC(=O)O)C(c1ccccc1)c1ccccc1)C(=O)N[C@H](C(=O)N[C@@H](Cc1c[nH]c2ccccc12)C(=O)O)[C@@H](C)CC (Suc-[Dip]LDIIW-OH) | > 10000

The remaining compounds from weak to strong by IC50, led by results:

Row | IC50 [nM] | Compound
16 | 2000 | CC[C@H](C)[C@H](NC(=O)[C@H](CC(=O)O)NC(=O)[C@H](CC(C)C)NC(=O)[C@H](CC12CC3CC(CC(C3)C1)C2)NC(C)=O)C(=O)N[C@H](C(=O)N[C@@H](Cc1c[nH]c2ccccc12)C(=O)O)[C@@H](C)CC (Ac-[Ala(1-Adamantyl)]LDIIW-OH)
17 | 1600 | CC[C@H](C)[C@@H]1NC(=O)[C@H](CC(=O)O)NC(=O)[C@H](CC(C)C)NC(=O)[C@@H](C(c2ccccc2)c2ccccc2)NC(=O)[C@H](Cc2c[nH]c3ccccc23)NC(=O)[C@H]([C@@H](C)CC)NC1=O
18 | 1400 | CC[C@H](C)[C@H](NC(=O)[C@H](CC(=O)O)NC(=O)[C@H](CC(C)C)NC(=O)[C@@H](NC(C)=O)C(c1ccccc1)c1ccccc1)C(=O)N[C@H](C(=O)N[C@@H](Cc1c[nH]c2ccccc12)C(=O)O)C(C)C (Ac-[Dip]LDIVW-OH)
19 | 740 | CC[C@H](C)[C@H](NC(=O)[C@H](CC(=O)O)NC(=O)[C@@H](Cc1ccccc1)NC(=O)[C@@H](NC(C)=O)C(c1ccccc1)c1ccccc1)C(=O)N[C@H](C(=O)N[C@@H](Cc1c[nH]c2ccccc12)C(=O)O)[C@@H](C)CC
20 | 730 | CC[C@H](C)[C@H](NC(=O)[C@H](CC(=O)O)NC(=O)[C@H](CC(C)C)NC(=O)[C@H](NC(C)=O)C(c1ccccc1)c1ccccc1)C(=O)N[C@@H](CC(C)C)C(=O)N[C@@H](Cc1c[nH]c2ccccc12)C(=O)O
21 | 330 | CC[C@H](C)[C@H](NC(=O)[C@H](C)NC(=O)[C@H](CC(=O)O)NC(=O)[C@H](CC(C)C)NC(=O)[C@H](NC(C)=O)C(c1ccccc1)c1ccccc1)C(=O)N[C@@H](Cc1c[nH]c2ccccc12)C(=O)O
22 | 210 | CC[C@H](C)[C@H](NC(=O)[C@H](CC1CCCCC1)NC(=O)[C@H](CC(=O)O)NC(=O)[C@H](CC(C)C)NC(=O)[C@H](NC(C)=O)C(c1ccccc1)c1ccccc1)C(=O)N[C@@H](Cc1c[nH]c2ccccc12)C(=O)O
23 | 150 | CC[C@H](C)[C@H](NC(=O)[C@H](CC(=O)O)NC(=O)[C@H](CCCN)NC(=O)[C@@H](NC(C)=O)C(c1ccccc1)c1ccccc1)C(=O)N[C@H](C(=O)N[C@@H](Cc1c[nH]c2ccccc12)C(=O)O)[C@@H](C)CC (Ac-[Dip][Orn]DIIW-OH)
24 | 80 | CC[C@H](C)[C@H](NC(=O)[C@H](Cc1ccc(O)cc1)NC(=O)[C@H](CC(C)C)NC(=O)[C@H](NC(C)=O)C(c1ccccc1)c1ccccc1)C(=O)N[C@H](C(=O)N[C@@H](Cc1c[nH]c2ccccc12)C(=O)O)[C@@H](C)CC
25 | 51 | CC[C@H](C)[C@H](NC(=O)[C@@H](NC(=O)[C@H](CC(=O)O)NC(=O)[C@H](CC(C)C)NC(=O)[C@@H](NC(C)=O)C(c1ccccc1)c1ccccc1)C(C)C)C(=O)N[C@@H](Cc1c[nH]c2ccccc12)C(=O)O (Ac-[Dip]LDVIW-OH)
26 | 20 | Ac-FFDIIW-OH
27 | 16 | CC[C@H](C)[C@H](NC(=O)[C@H](C)NC(=O)[C@H](CC(C)C)NC(=O)[C@@H](NC(C)=O)C(c1ccccc1)c1ccccc1)C(=O)N[C@H](C(=O)N[C@@H](Cc1c[nH]c2ccccc12)C(=O)O)[C@@H](C)CC (Ac-[Dip]LAIIW-OH)
28 | 12 | CC[C@H](C)[C@H](NC(=O)[C@H](Cc1ccc(O)cc1)NC(=O)[C@H](CC(=O)O)NC(=O)[C@H](CC(C)C)NC(=O)[C@@H](NC(C)=O)C(c1ccccc1)c1ccccc1)C(=O)N[C@@H](Cc1c[nH]c2ccccc12)C(=O)O (Ac-[Dip]LDYIW-OH)
